According to patent publication US12371428B2 (Exelixis, Inc., priority 2019, dated 2025):
pIC50: −log10 of the molar value. Read-outs that look alike come from different tables or passages of the source.

Legend:
Format in all cases: cell-based
[1] = target: Mer (phospho-Mer, MERTK-transfected 293A cells) (Homo sapiens (Human), UniProt Q12866); assay: Mer autophosphorylation ELISA in transient transfected 293A cells (Example H); details: cellular activity
Summary of the method: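 MERTK-transfected 293A; 8-pt dose, 1 h, serum-free, 0.3% DMSO. Cold lysis with orthovanadate and protease/phosphatase inhibitors. Phospho-Mer by DuoSet IC ELISA vs phospho-Mer standard. IC50: 4-PL fit; DMSO = 100%, reference inhibitor = 0%.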

[2] = target: AXL (phospho-AXL, Gas6-stimulated A-172 glioblastoma cells) (Homo sapiens (Human), UniProt P30530); assay: AXL autophosphorylation ELISA in A-172 cells (Example E); details: cellular activity, read-out: Axl IC50
AXL (phospho-AXL, Gas6-stimulated A-172 glioblastoma cells), sequence (P30530 26-894): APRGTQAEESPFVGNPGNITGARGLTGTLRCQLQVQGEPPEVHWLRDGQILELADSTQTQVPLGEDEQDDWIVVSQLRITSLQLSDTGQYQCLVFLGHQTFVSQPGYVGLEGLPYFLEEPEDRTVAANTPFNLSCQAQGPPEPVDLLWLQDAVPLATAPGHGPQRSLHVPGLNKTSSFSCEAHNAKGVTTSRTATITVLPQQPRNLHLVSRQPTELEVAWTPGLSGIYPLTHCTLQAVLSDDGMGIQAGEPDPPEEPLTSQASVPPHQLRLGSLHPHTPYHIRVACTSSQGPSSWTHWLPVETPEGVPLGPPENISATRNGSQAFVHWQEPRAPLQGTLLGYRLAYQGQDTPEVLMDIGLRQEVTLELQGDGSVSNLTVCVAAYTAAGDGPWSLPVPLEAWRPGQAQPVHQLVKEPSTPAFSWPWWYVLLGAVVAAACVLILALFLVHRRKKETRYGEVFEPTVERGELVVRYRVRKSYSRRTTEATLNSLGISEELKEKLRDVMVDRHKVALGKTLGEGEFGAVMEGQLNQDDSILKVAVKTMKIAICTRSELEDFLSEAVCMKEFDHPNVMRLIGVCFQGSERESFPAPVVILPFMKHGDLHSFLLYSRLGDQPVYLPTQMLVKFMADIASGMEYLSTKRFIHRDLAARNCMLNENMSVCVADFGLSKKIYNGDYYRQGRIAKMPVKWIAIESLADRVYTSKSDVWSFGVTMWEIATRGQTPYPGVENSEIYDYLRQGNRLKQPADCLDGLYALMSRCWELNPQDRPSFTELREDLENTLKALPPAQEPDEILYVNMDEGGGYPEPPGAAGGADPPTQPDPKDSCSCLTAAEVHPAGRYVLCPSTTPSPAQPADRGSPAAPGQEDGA
Method: A-172 cells were incubated at 37° C., 5% CO2 for 24 h and then starved for 24 h in serum-free medium. Test compounds were serially diluted to produce an 8-point dose curve in fresh serum-free medium to a final concentration of 0.3% DMSO (vehicle) and added to the cells and incubated for 1 h. […] Lysates were collected and 100 μL/well added into the human phospho-AXL DuoSet IC ELISA (R&D Systems #DYC2228-2). […] Positive control wells (100% activity) contained Gas6-stimulated, DMSO-treated cell lysates. Negative control wells (0% activity) contained Gas6-stimulated, reference inhibitor-treated cell lysates. IC50 values were calculated by nonlinear regression analysis using a 4-parameter logistic curve fit in ActivityBase XE (IDBS).

[3] = target: Met (phospho-Met, HGF-stimulated PC-3 prostate cancer cells) (Homo sapiens (Human), UniProt P08581); assay: Met autophosphorylation ELISA in PC-3 cells (Example F); details: cellular activity, read-out: c-Met IC50
Met (phospho-Met, HGF-stimulated PC-3 prostate cancer cells), sequence (P08581 25-1390): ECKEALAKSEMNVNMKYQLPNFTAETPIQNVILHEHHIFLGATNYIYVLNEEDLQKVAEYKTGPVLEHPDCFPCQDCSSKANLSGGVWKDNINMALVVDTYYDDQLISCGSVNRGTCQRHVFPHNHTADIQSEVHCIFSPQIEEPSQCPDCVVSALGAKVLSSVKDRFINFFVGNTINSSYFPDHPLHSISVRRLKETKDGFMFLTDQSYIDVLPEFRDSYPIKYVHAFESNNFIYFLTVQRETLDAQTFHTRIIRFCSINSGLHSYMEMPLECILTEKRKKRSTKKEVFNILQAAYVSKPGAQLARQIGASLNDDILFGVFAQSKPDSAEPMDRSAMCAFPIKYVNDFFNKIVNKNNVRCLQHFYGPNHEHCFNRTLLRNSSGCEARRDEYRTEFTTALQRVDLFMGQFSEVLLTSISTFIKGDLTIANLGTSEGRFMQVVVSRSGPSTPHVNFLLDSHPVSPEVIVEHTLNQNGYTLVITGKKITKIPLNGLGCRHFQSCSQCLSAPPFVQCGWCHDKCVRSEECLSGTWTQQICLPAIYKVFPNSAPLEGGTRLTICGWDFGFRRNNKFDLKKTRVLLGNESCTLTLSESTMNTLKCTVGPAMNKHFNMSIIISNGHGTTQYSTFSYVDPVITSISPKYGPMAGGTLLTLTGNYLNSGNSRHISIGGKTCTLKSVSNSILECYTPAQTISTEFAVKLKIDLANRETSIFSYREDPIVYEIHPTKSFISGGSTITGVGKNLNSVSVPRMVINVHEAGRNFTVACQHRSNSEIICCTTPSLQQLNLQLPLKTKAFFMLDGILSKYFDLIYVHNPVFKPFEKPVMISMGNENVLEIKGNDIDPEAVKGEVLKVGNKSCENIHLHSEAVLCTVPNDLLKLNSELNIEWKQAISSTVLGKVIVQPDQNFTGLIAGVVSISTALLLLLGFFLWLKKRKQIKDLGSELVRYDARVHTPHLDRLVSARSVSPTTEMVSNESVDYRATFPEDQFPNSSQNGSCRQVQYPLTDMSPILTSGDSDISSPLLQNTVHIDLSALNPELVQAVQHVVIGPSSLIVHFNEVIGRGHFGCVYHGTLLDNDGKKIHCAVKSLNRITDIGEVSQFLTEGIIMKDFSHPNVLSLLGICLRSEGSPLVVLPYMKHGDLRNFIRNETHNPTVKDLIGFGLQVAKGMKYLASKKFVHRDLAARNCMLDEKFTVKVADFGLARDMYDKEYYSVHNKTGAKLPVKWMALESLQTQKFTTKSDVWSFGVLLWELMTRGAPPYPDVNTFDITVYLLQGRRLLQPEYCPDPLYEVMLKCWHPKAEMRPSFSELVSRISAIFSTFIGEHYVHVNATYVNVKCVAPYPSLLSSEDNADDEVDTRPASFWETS
Summary of the method: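 Serum-starved (3 h) PC-3 cells were treated 1 h with compounds (8-point curve, 0.3% DMSO), then stimulated with 100 ng/mL human HGF for 10 min. Lysate phospho-Met (panTyr) was measured by sandwich ELISA, normalised to DMSO and reference-inhibitor controls. IC50 came from 4-parameter logistic fit.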

[4] = Mer autophosphorylation ELISA in transient transfected 293A cells
[5] = AXL autophosphorylation ELISA in A-172 cells
[6] = Met autophosphorylation ELISA in PC-3 cells

Mer (phospho-Mer, MERTK-transfected 293A cells), sequence (Q12866 21-999): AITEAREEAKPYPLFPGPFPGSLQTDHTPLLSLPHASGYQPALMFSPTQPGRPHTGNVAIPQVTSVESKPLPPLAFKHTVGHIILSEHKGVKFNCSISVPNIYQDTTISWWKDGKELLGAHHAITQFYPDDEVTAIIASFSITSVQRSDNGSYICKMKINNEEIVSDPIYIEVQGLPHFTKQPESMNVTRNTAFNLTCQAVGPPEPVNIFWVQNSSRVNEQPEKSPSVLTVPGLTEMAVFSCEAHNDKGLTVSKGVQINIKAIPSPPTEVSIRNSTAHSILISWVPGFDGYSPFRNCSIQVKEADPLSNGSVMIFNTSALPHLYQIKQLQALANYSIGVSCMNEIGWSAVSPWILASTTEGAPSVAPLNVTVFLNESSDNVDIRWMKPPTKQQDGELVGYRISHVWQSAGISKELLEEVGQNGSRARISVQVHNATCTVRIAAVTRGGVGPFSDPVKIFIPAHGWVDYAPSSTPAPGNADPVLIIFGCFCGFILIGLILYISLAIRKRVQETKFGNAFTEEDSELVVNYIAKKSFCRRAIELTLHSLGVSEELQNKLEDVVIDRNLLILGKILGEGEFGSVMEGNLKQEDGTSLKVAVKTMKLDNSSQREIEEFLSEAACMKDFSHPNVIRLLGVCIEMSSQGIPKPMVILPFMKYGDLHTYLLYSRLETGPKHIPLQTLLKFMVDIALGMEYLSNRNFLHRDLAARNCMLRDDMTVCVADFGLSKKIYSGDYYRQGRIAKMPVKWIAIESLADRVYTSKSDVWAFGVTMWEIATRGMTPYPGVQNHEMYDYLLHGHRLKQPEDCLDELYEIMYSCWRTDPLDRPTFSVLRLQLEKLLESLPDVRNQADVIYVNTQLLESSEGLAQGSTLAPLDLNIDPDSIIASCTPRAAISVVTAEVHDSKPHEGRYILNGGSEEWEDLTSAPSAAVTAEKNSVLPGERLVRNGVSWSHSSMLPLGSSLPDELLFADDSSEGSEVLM

| Compound | pIC50 ([1]; transfected 293A cells) | pIC50 ([2]; A-172 cells) | pIC50 ([3]; PC-3 cells) | pIC50 [1, 4] | pIC50 [2, 5] | pIC50 [3, 6] |
| --- | --- | --- | --- | --- | --- | --- |
| COc1nc2c(Oc3ccc(NC(=O)c4cn(C)c(C)c(-c5ccc(F)cc5)c4=O)cc3F)ccnc2cc1N [Compound 803, N-[4-[(7-amino-6-methoxy-1,5-naphthyridin-4-yl)oxy]-3-fluorophenyl]-5-(4-fluorophenyl)-1,6-dimethyl-4-oxopyridine-3-carboxamide] | > 7.00 | > 7.00 | > 7.00 |  |  |  |
| COc1cnc2c(Oc3ccc(NC(=O)c4c(C)nc(C)c(-c5ccc(F)cc5F)c4O)cc3F)ccnc2c1 [Compound 210, 5-(2,4-Difluorophenyl)-N-[3-fluoro-4-[(7-methoxy-1,5-naphthyridin-4-yl)oxy]phenyl]-4-hydroxy-2,6-dimethylpyridine-3-carboxamide] |  |  |  | > 7.00 | > 7.00 | > 7.00 |
| COCc1nc(C)c(-c2ccc(F)cc2F)c(O)c1C(=O)Nc1ccc(Oc2ccnc3cc(OC)c(OC)nc23)c(F)c1 [Compound 212, 5-(2,4-Difluorophenyl)-N-[4-[(6,7-dimethoxy-1,5-naphthyridin-4-yl)oxy]-3-fluorophenyl]-4-hydroxy-2-(methoxymethyl)-6-methylpyridine-3-carboxamide] |  |  |  | > 7.00 | > 7.00 | > 7.00 |
| COc1cc2nccc(Oc3ccc(NC(=O)c4nnc(C)c(-c5ccc(F)cc5)c4SC)cc3F)c2nc1OC [Compound 602, N-[4-[(6,7-Dimethoxy-1,5-naphthyridin-4-yl)oxy]-3-fluorophenyl]-5-(4-fluorophenyl)-6-methyl-4-methylsulfanylpyridazine-3-carboxamide] |  |  |  | > 7.00 | 6.52 to 7.00 | 6.52 to 7.00 |
| COc1ccc2nccc(Oc3ccc(NC(=O)c4c(C)ncc(-c5ccc(F)cc5C)c4O)cc3)c2n1 [Compound 493, 5-(4-fluoro-2-methylphenyl)-4-hydroxy-N-[4-[(6-methoxy-1,5-naphthyridin-4-yl)oxy]phenyl]-2-methylpyridine-3-carboxamide] |  |  |  | > 7.00 | > 7.00 | > 7.00 |
| CCOCc1nc(C)c(-c2ccc(F)cc2)c(O)c1C(=O)Nc1ccc(Oc2ccnc3cc(OC)c(OC)nc23)c(F)c1 [Compound 213, N-[4-[(6,7-Dimethoxy-1,5-naphthyridin-4-yl)oxy]-3-fluorophenyl]-2-(ethoxymethyl)-5-(4-fluorophenyl)-4-hydroxy-6-methylpyridine-3-carboxamide] |  |  |  | > 7.00 | > 7.00 | > 7.00 |
| CCOCc1nc(C)c(-c2ccc(F)cc2)c(O)c1C(=O)Nc1ccc(Oc2ccnc3cc(OC)cnc23)c(F)c1 [Compound 214, 2-(Ethoxymethyl)-N-[3-fluoro-4-[(7-methoxy-1,5-naphthyridin-4-yl)oxy]phenyl]-5-(4-fluorophenyl)-4-hydroxy-6-methylpyridine-3-carboxamide] |  |  |  | > 7.00 | > 7.00 | > 7.00 |
| Cc1cc(C)n(-c2ccc(F)cc2)c(=O)c1C(=O)Nc1ccc(Oc2ccnc3cc(C(C)CO)cnc23)c(F)c1 (stereo not drawn) [Compound 599, N-[3-Fluoro-4-[[7-(1-hydroxypropan-2-yl)-1,5-naphthyridin-4-yl]oxy]phenyl]-1-(4-fluorophenyl)-4,6-dimethyl-2-oxopyridine-3-carboxamide] |  |  |  | > 7.00 | > 7.00 | > 7.00 |
| COCc1nc(C)cc(O)c1C(=O)Nc1ccc(Oc2ccnc3cc(OC)c(OC)nc23)c(F)c1 [Compound 492, N-[4-[(6,7-dimethoxy-1,5-naphthyridin-4-yl)oxy]-3-fluorophenyl]-4-hydroxy-2-(methoxymethyl)-6-methylpyridine-3-carboxamide] |  |  |  | > 7.00 | 6.52 to 7.00 | > 7.00 |
| COCc1nc(C)c(-c2ccc(F)cc2F)c(O)c1C(=O)Nc1ccc(Oc2ccnc3cc(OC)cnc23)c(F)c1 [Compound 211, 5-(2,4-Difluorophenyl)-N-[3-fluoro-4-[(7-methoxy-1,5-naphthyridin-4-yl)oxy]phenyl]-4-hydroxy-2-(methoxymethyl)-6-methylpyridine-3-carboxamide] |  |  |  | > 7.00 | > 7.00 | > 7.00 |
| COc1nc2c(Oc3ccc(NC(=O)c4c(C)nc(C)c(-c5ccc(F)cc5C)c4O)cc3F)ccnc2cc1N [Compound 804, N-[4-[(7-amino-6-methoxy-1,5-naphthyridin-4-yl)oxy]-3-fluorophenyl]-5-(4-fluoro-2-methylphenyl)-4-hydroxy-2,6-dimethylpyridine-3-carboxamide] | > 7.00 | > 7.00 | > 7.00 |  |  |  |
| CNC(=O)c1cc2c(Oc3ccc(NC(=O)c4cnc(C)c(-c5ccc(F)cc5)c4O)cc3)ccnc2cn1 [Compound 398, 4-[4-[[5-(4-fluorophenyl)-4-hydroxy-6-methylpyridine-3-carbonyl]amino]phenoxy]-N-methyl-1,7-naphthyridine-6-carboxamide] |  |  |  | > 7.00 | > 7.00 | > 7.00 |
| COc1cc2nccc(Oc3ccc(NC(=O)c4c(C)nc(C)c(-c5ccc(F)cc5F)c4O)cc3F)c2nc1OC [Compound 209, 5-(2,4-Difluorophenyl)-N-[4-[(6,7-dimethoxy-1,5-naphthyridin-4-yl)oxy]-3-fluorophenyl]-4-hydroxy-2,6-dimethylpyridine-3-carboxamide] |  |  |  | > 7.00 | > 7.00 | > 7.00 |

Other lines, results leading:

| pIC50 ([1]; transfected 293A cells) | pIC50 ([2]; A-172 cells) | pIC50 ([3]; PC-3 cells) | pIC50 [1, 4] | pIC50 [2, 5] | pIC50 [3, 6] | Compound |
| --- | --- | --- | --- | --- | --- | --- |
| > 7.00 | > 7.00 | > 7.00 |  |  |  | COc1cc(F)ccc1-c1cn(CCF)c(C)c(C(=O)Nc2ccc(Oc3ccnc4cc(OC)c(OC)nc34)c(F)c2)c1=O [Compound 805, N-[4-[(6,7-dimethoxy-1,5-naphthyridin-4-yl)oxy]-3-fluorophenyl]-1-(2-fluoroethyl)-5-(4-fluoro-2-methoxyphenyl)-2-methyl-4-oxopyridine-3-carboxamide] |
|  |  |  | > 7.00 | > 7.00 | > 7.00 | COc1cc2nccc(Oc3ccc(NC(=O)c4cn(CCF)c(C)c(-c5ccc(F)cc5C)c4=O)cc3)c2nc1OC [Compound 800, N-[4-[(6,7-dimethoxy-1,5-naphthyridin-4-yl)oxy]phenyl]-1-(2-fluoroethyl)-5-(4-fluoro-2-methylphenyl)-6-methyl-4-oxopyridine-3-carboxamide] |
|  |  |  | > 7.00 | > 7.00 | > 7.00 | COc1cc2nccc(Oc3ccc(NC(=O)c4cn(CC(F)F)c(C)c(-c5ccc(F)cc5)c4=O)cc3F)c2nc1OC [Compound 623, 1-(2,2-Difluoroethyl)-N-[4-[(6,7-dimethoxy-1,5-naphthyridin-4-yl)oxy]-3-fluorophenyl]-5-(4-fluorophenyl)-6-methyl-4-oxopyridine-3-carboxamide] |
|  |  |  | > 7.00 | > 7.00 | > 7.00 | COc1cc2nccc(Oc3ccc(NC(=O)c4cc(F)c(C)n(-c5ccc(F)cc5)c4=O)cc3)c2nc1OC [Compound 338, N-[4-[(6,7-dimethoxy-1,5-naphthyridin-4-yl)oxy]phenyl]-5-fluoro-1-(4-fluorophenyl)-6-methyl-2-oxopyridine-3-carboxamide] |
|  |  |  | > 7.00 | > 7.00 | > 7.00 | COc1cc2nccc(Oc3ccc(NC(=O)c4cn(CCF)c(C)c(-c5ccc(F)cc5C)c4=O)cc3F)c2nc1OC [Compound 801, N-[4-[(6,7-dimethoxy-1,5-naphthyridin-4-yl)oxy]-3-fluorophenyl]-1-(2-fluoroethyl)-5-(4-fluoro-2-methylphenyl)-6-methyl-4-oxopyridine-3-carboxamide] |
|  |  |  | > 7.00 | > 7.00 | > 7.00 | COc1cc2nccc(Oc3ccc(NC(=O)c4cn(CCF)c(C)c(-c5ccc(F)cc5)c4=O)cc3F)c2nc1OC [Compound 622, N-[4-[(6,7-Dimethoxy-1,5-naphthyridin-4-yl)oxy]-3-fluorophenyl]-1-(2-fluoroethyl)-5-(4-fluorophenyl)-6-methyl-4-oxopyridine-3-carboxamide] |
| > 7.00 | > 7.00 | > 7.00 |  |  |  | COc1cc2nccc(Oc3ccc(NC(=O)c4c(C)n(CCF)cc(-c5ccc(F)c(C)c5)c4=O)cc3F)c2nc1OC [Compound 806, N-[4-[(6,7-dimethoxy-1,5-naphthyridin-4-yl)oxy]-3-fluorophenyl]-1-(2-fluoroethyl)-5-(4-fluoro-3-methylphenyl)-2-methyl-4-oxopyridine-3-carboxamide] |
|  |  |  | > 7.00 | > 7.00 | > 7.00 | COc1cnc2c(Oc3ccc(NC(=O)c4cn(CCF)c(C)c(-c5ccc(F)cc5C)c4=O)cc3F)ccnc2c1 [Compound 799, 1-(2-fluoroethyl)-N-[3-fluoro-4-[(7-methoxy-1,5-naphthyridin-4-yl)oxy]phenyl]-5-(4-fluoro-2-methylphenyl)-6-methyl-4-oxopyridine-3-carboxamide] |
